The text below walks through data of publication PMC3299684, “Two Odorant-Binding Proteins Mediate the Behavioural Response of Aphids to the Alarm Pheromone (E)-ß-farnesene and Structural Analogues” (PLoS ONE, 2012).

pIC50, pKd: −log10 of the molar value.

In general, pKd refers to −log10 of the Kd, conventionally taken in molar units.

The target in test [1] is T1, OBP7 (Acyrthosiphon pisum, UniProt A0A8R1TDD0).
T1 construct: gene 100160457; primers encode N-terminus (M)YLSEA, C-terminus EFLPL
T1 sequence (A0A8R1TDD0 31-155): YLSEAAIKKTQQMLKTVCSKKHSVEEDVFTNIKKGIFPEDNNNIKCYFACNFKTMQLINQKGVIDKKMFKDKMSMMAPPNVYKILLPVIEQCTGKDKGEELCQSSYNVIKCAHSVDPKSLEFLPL
As to the kind of experiment: competitive displacement of 1-NPN fluorescence. Particulars: 50 mM Tris-HCl pH 7.4, 25°C; protein and 1-NPN 2 µM; KD calculated from IC50. The test is classed as binding.

The target of test [2] is T2, OBP3 (Acyrthosiphon pisum, UniProt A0A8R1XHB4).
T2 construct: construct not detailed here
T2 sequence (A0A8R1XHB4 24-141 limits assumed): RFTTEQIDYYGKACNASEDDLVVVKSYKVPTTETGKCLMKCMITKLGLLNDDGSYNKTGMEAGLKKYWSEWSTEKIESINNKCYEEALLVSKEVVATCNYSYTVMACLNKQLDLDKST
In words: competitive displacement of 1-NPN fluorescence. Format: binding. Particulars: 50 mM Tris-HCl pH 7.4, 25°C; protein and 1-NPN 2 µM; KD calculated from IC50.

In test [3] the target is T1, OBP7. In words: biochemical. Set-up: competitive fluorescence binding assay, displacement of 1-NPN (2 uM) from recombinant OBP (2 uM), pH 7.4. Conditions: for pIC50: read-out: [IC]50 OBP7. How it is done:
(§1) The probe was excited at 337 nm and emission spectra were recorded between 380 and 450 nm. […] For determining binding constants, the intensity values corresponding to the maximum of fluorescence emission were plotted against free ligand concentrations. The curves were drawn using the Prism software, that allowed calculation of the dissociation constants and the stoichiometry of binding, assuming that the protein was 100% active. […] Supplementary file pone.0032759.s002.doc: Table S1 Binding properties of the ligands utilised in ligand binding assays and behaviour experiments. For each protein, [IC]50 reports the concentration of ligand that halves the initial fluorescence intensity (both protein and 1-NPN were used at the concentration of 2 µM). Dissociation constants are calculated as reported in the Materials and Methods section. The structures of “CAU” ligands are reported in Table 1, those of “LIG” chemicals in Figure 3. […] (DOC) Click here for additional data file.

In a further test the target is T3, OBP6 (Acyrthosiphon pisum, UniProt A0A8R1TDN2).
T3 sequence (A0A8R1TDN2 1-160): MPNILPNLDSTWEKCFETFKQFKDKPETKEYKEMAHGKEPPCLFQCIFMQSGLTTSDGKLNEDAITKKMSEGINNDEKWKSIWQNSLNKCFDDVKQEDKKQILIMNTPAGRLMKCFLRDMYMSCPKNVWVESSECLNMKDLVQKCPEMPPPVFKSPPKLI
As to the kind of experiment: biochemical. More on the design: competitive fluorescence binding assay, displacement of 1-NPN (2 uM) from recombinant OBP (2 uM), pH 7.4. How it is done: The probe was excited at 337 nm and emission spectra were recorded between 380 and 450 nm. […] For determining binding constants, the intensity values corresponding to the maximum of fluorescence emission were plotted against free ligand concentrations. The curves were drawn using the Prism software, that allowed calculation of the dissociation constants and the stoichiometry of binding, assuming that the protein was 100% active. […] Supplementary file pone.0032759.s002.doc: Table S1 Binding properties of the ligands utilised in ligand binding assays and behaviour experiments. For each protein, [IC]50 reports the concentration of ligand that halves the initial fluorescence intensity (both protein and 1-NPN were used at the concentration of 2 µM). Dissociation constants are calculated as reported in the Materials and Methods section. The structures of “CAU” ligands are reported in Table 1, those of “LIG” chemicals in Figure 3. Blank cells indicate values of [IC]50 higher than 30 µM. For these compounds dissociation constants have not been calculated. (DOC) Click here for additional data file.

Test [4] concerns the target T2, OBP3. More on the design: competitive fluorescence binding assay, displacement of 1-NPN (2 uM) from recombinant OBP (2 uM), pH 7.4. Conditions: binder. How it is done: as §1

As to `C=CC(=C)CC/C=C(\C)CCC=C(C)C` [(E)-ß-farnesene], the KD result at OBP7 [1] is “including (E)-ß-farnesene and structurally similar molecules, bind only OBP3 and/or OBP7”; at OBP3 [2], “including (E)-ß-farnesene and structurally similar molecules, bind only OBP3 and/or OBP7”.

Consider `CC(C)CCCC(C)CCOC(=O)c1ccccc1` (centres unmarked) [LIG-4], for which the values for the pIC50 at OBP7 [3] and at OBP6 (read-out: [IC]50 OBP6) were 5.60 and 4.79, respectively. At OBP6, the pKd was 4.86.

For `CC(C)CCOC(=O)CCCc1ccccc1` [LIG-8], the negative-log Kd (pKd) at OBP3 [4] was 4.97; at OBP7 [3], 5.55. Also, the pIC50 on OBP3 [4] (read-out: [IC]50 OBP3) is 4.85; on OBP7 [3], 5.26.

As to `CC(=O)OC/C=C(\C)CCC=C(C)C` [LIG-7], at OBP7 [3], the pKd was 5.03 and the pIC50 was 4.74.
